From ChEMBL document CHEMBL1201862, “PubChem BioAssay data set” (2004)
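Grown in 96-well plates, cells were treated for 48 hours with each compound at five concentrations. Insufficient inhibition: endpoint recorded as highest concentration tested. GI50 = concentration required for 50% inhibition of growth.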 The source made the active and inactive calls. Rule as the data show it: active = GI50 up to about 1.1 µM and inactive = higher.

Assays:
Assay in all cases: NCI anticancer screen, dose series, 48 h
786-0 = test system: 786-0
A498 = test system: A498
A549 = test system: A549
ACHN = test system: ACHN
BT-549 = test system: BT-549
CAKI-1 = test system: CAKI-1
DU-145 = test system: DU-145
HCT-116 = test system: HCT-116
HOP-62 = test system: HOP-62
IGROV-1 = test system: IGROV-1
M14 = test system: M14
NCI-H226 = test system: NCI-H226
NCI-H23 = test system: NCI-H23
NCI-H460 = test system: NCI-H460
OVCAR-5 = test system: OVCAR-5
RXF 393 = test system: RXF 393
SK-MEL-2 = test system: SK-MEL-2
SN12C = test system: SN12C
UACC-257 = test system: UACC-257
UO-31 = test system: UO-31

Row | Structure (SMILES) | GI50 (786-0) | GI50 (A498) | GI50 (A549) | GI50 (ACHN) | GI50 (BT-549) | GI50 (CAKI-1) | GI50 (DU-145) | GI50 (HCT-116) | GI50 (HOP-62) | GI50 (IGROV-1) | GI50 (M14) | GI50 (NCI-H226) | GI50 (NCI-H23) | GI50 (NCI-H460) | GI50 (OVCAR-5) | GI50 (RXF 393) | GI50 (SK-MEL-2) | GI50 (SN12C) | GI50 (UACC-257) | GI50 (UO-31)
1 | CC(/C=C/C=C\C=C\C=C(/C)C(=O)NC(C)CO)=C\C(C)C(O)/C(C)=C/C(C)CCc1ccccc1 (stereo not given) | 13.4 µM (inactive) | 12.6 µM (inactive) | 4.05 µM (inactive) | 0.274 µM (active) | 15.2 µM (inactive) | 14.2 µM (inactive) | 13.8 µM (inactive) | 0.127 µM (active) | 12.4 µM (inactive) | 11.1 µM (inactive) | 8 µM (inactive) | 8.65 µM (inactive) | < 0.01 µM (active) | 3.85 µM (inactive) | 10.9 µM (inactive) | 12.9 µM (inactive) | 13.2 µM (inactive) | 12.8 µM (inactive) | 0.0359 µM (active) | 5.11 µM (inactive)
2 | Oc1c(C2=NNC(c3cccs3)C2)ccc2ccccc12 (stereo not given) | 32.9 µM (inactive) | 26.2 µM (inactive) | 25.3 µM (inactive) | 27.7 µM (inactive) | 32.5 µM (inactive) | 40.6 µM (inactive) | 20.9 µM (inactive) | 16.4 µM (inactive) | 26.9 µM (inactive) | 14.5 µM (inactive) | 14.4 µM (inactive) | 24.9 µM (inactive) | 28.5 µM (inactive) | 14.8 µM (inactive) | 29.6 µM (inactive) | 42.6 µM (inactive) | 40.5 µM (inactive) | 19.4 µM (inactive) | 30.1 µM (inactive) | 32.4 µM (inactive)
3 | COc1ccccc1NC(=O)CC(=O)n1nc(C)c(/N=N/c2ccccc2Cl)c1C | > 100 µM (inactive) | > 100 µM (inactive) | > 100 µM (inactive) | > 100 µM (inactive) | > 81.7 µM (inactive) | > 100 µM (inactive) | > 100 µM (inactive) | > 100 µM (inactive) | 58.3 µM (inactive) | > 100 µM (inactive) | > 100 µM (inactive) | > 100 µM (inactive) | > 37.2 µM (inactive) | > 100 µM (inactive) | > 100 µM (inactive) | > 100 µM (inactive) | > 100 µM (inactive) | > 100 µM (inactive) | > 91.4 µM (inactive) | > 100 µM (inactive)
4 | CC[P+]1(c2ccccc2)[C@@H](C)CC[C@@H]1C | > 100 µM (inactive) | > 100 µM (inactive) | > 100 µM (inactive) | > 100 µM (inactive) | > 100 µM (inactive) | > 100 µM (inactive) | > 100 µM (inactive) | > 100 µM (inactive) | > 100 µM (inactive) | > 100 µM (inactive) | > 100 µM (inactive) | > 100 µM (inactive) | > 100 µM (inactive) | > 100 µM (inactive) | > 100 µM (inactive) | > 100 µM (inactive) | > 100 µM (inactive) | > 100 µM (inactive) | > 100 µM (inactive) | > 100 µM (inactive)
5 | COC(=O)c1cc(NC(=O)Cc2c[nH]c3ccccc23)cn1C | > 100 µM (inactive) | > 100 µM (inactive) | 70.5 µM (inactive) | 72.4 µM (inactive) | 57.5 µM (inactive) | > 100 µM (inactive) | > 100 µM (inactive) | 71.4 µM (inactive) | 88.1 µM (inactive) | 22.5 µM (inactive) | > 100 µM (inactive) | 21.7 µM (inactive) | > 100 µM (inactive) | 70.5 µM (inactive) | > 100 µM (inactive) | > 100 µM (inactive) | 81.7 µM (inactive) | 42.9 µM (inactive) | > 100 µM (inactive) | 23.6 µM (inactive)
6 | CC(C)=CC1CC(C)C2(CCC3(C)CC4C(C(=O)CC4(C)O)/C(C=O)=C\CC32)O1 (stereo not given) | 0.021 µM (active) | 0.278 µM (active) | 0.0685 µM (active) | 0.0324 µM (active) | 0.177 µM (active) | 0.0604 µM (active) | 0.129 µM (active) | 0.0407 µM (active) | 0.126 µM (active) | 0.144 µM (active) | 0.134 µM (active) | 0.0689 µM (active) | 0.0757 µM (active) | 0.133 µM (active) | 0.14 µM (active) | 0.0373 µM (active) | 0.144 µM (active) | 0.0638 µM (active) | 0.12 µM (active) | 0.0355 µM (active)
7 | COc1cc2c(c3oc4c(O)cccc4c(=O)c13)CC(C(C)(O)CCl)O2 (stereo not given) | 0.889 µM (active) | 15.1 µM (inactive) | 2.54 µM (inactive) | 0.114 µM (active) | 3.85 µM (inactive) | 1.16 µM (inactive) | 2.31 µM (inactive) | 0.157 µM (active) | 0.733 µM (active) | 2.03 µM (inactive) | 0.256 µM (active) | 5.81 µM (inactive) | 0.512 µM (active) | 2.64 µM (inactive) | 6.34 µM (inactive) | 0.834 µM (active) | 1.36 µM (inactive) | 0.209 µM (active) | 1.98 µM (inactive) | 0.807 µM (active)
